# What was measured:
# [1] = system: spontaneously hypertensive rats (SHR); test: in vivo blood pressure regulation by a single administration (systolic pressure); set-up: species or system rat
# Protocol: To investigate in vivo blood pressure regulation effect of the functional peptide separated from the oyster enzyme hydrolysate by a single administration, the peptide was administered to the hypertension animal model once (single administration), followed by the investigation of blood pressure.
# Particularly, male spontaneously hypertensive rats (SHR; Central Lab. Animal Inc.) at 11 weeks and Wistar rats (Central Lab. Animal Inc.) were purchased, which were raised in a laboratory animal room in which the temperature was regulated at 22±3° C., the humidity was controlled at 50±5%, and the light/dark cycle was set at 12 h/12 h. Feeds and drinking water were provided freely. After a week of adaptation, the animals were divided into the experimental and the control groups and used for the experiment according to the guide line of Association for Assessment and Accreditation of Laboratory Care International approved by Institutional Animal Care and Use Committee, Kyunghee University College of Pharmacy. […] Then the animals were fixed for 20 minutes in a rat temperature control unit in which the temperature was maintained at 42° C. at the time point of 0, 3, 6, 9, 12, and 24 h, to let the tail vessel fully expanded. Then, systolic pressure was measured to investigate the antihypertensive activity.
# [2] = system: spontaneously hypertensive rats (SHR); test: in vivo blood pressure regulation by the repeated administration (systolic pressure); set-up: species or system rat; settings: oral, daily for 4 weeks, hydrolysate 100 mg/kg, YA 50 μg/kg
# Protocol: To investigate in vivo blood pressure regulation effect of the functional peptide separated from the oyster enzyme hydrolysate by the repeated administration, the peptide was administered to the hypertension animal model repeatedly, followed by the investigation of blood pressure.
# (§1) Particularly, the same rats as described in Example <5-2> were purchased and raised under the same condition. […] Systolic pressure was measured by the same manner as described in Example <5-2> on week 0, week 1, week 2, week 3, and week 4. […] The blood sample was centrifuged at 3,000 rpm for 10 minutes, and as a result serum was obtained and stored at −80° C. The levels of blood ACE and angiotensin-II in the stored serum were measured by using a commercial ELISA kit (USCN Life Science, China) according to the manufacturer's protocol.
# blood ACE = test: level of blood ACE in serum by ELISA after repeated administration; format: in vivo, rat; settings: SHR serum after 4 weeks of oral administration, compared with negative control
# Protocol: as §1
# blood angiotensin-II = test: level of blood angiotensin-II in serum by ELISA after repeated administration; format: in vivo, rat; settings: SHR serum after 4 weeks of oral administration, compared with negative control
# Protocol: as §1
# [3] = system: mild hypertension patients; settings: Shimizu 1994; cited from earlier work
compound,measurement,setting,value
"C[C@H](CS)C(=O)N1CCC[C@H]1C(=O)O [Captopril, reference compound]",blood pressure lowering effect,"[1]; by the negative control, Captopril 8 mg/kg, hydrolysate 100 mg/kg",18˜19%
"C[C@H](NC(=O)[C@@H](N)Cc1ccc(O)cc1)C(=O)O [YA, tyrosine-alanine]",blood pressure lowering effect after 6 hours from the administration,"[1]; 50 μg/kg, 6 hours",33.9%
same,blood pressure on repeated administration (in words),[2],blood pressure did not increase for 2 weeks
same,level of blood ACE (in words),blood ACE,significantly decreased
same,level of blood angiotensin-II (in words),blood angiotensin-II,significantly decreased
valine-tyrosine [Val-Tyr],activity of reducing blood pressure (in words),[3],activity of reducing blood pressure
